In patent publication US6451735B1, “Glyphosate formulation” (priority 1998, dated 2002):
Where a name gives a salt, the structure may show the parent alone.

Test: solubility in water and solution density of glyphosate salt
Assay type: physicochemical

Q: What does the source list for `O=C(O)CNCP(=O)(O)O` [potassium salt of glyphosate, N-phosphonomethylglycine]?
A: density of solutions (aqueous solution): about 1.45 g/cc; solubility in water (water): readily soluble
